# Source: patent publication US20120035206A1, “PREPARATION AND APPLICATION OF NOVEL ANTIBACTERIAL AND ANTICANCER COMPOUNDS AND THEIR DERIVATIVES” (priority 2009, published 2012)
# How the values were obtained:
# Assay type in all cases: cell-based
# [1] = test system: C. Krusei; assay: In vitro antibacterial (antifungal) test, two-fold dilution MIC; settings: Pichia kudriavzevii, RPMI 1640, culture 2-7 days
# Procedure: (§1) In vitro antibacterial experiments of 25 compounds as anti-bacterial and anti-cancer compounds in the patent were tested using 14 kinds of bacteria. Tested bacteria: C. albicans, C. tropicalis, C. neoformans, E. floccosum, M. gypseum, A. niger, S. schenekn, C. parapsilosis, C. glabrata, C. Krusei, Trichoderma, Gibberella, Setrosphaeria turcica, Fusarium Oxysporum Vasinfectum. (Bacteria were from the Dermatology Hospital of Chinese Academy of Medical Sciences, Nanjing, China.)
# (§2) The Preparation of tested Bacteria solution was following: incubated Bacteria were added to 5 ml physiological saline, and then they were mashed and placed with ultrasound. The solution was fully mixed, and insoluble substances were removed. The treated solution was called the original bacterium solution. In the test, the bacteria concentration in the original bacterium solution was adjusted to […].
# (§3) Tested Methods: the tested compounds were dissolved in dimethyl sulfoxide. and the solution was diluted with sterile distilled water. And the distilled solution was added to sterilized RPMI 1640 medium. The concentration of the compounds were adjusted to 256, 128, 64, 32, 16, 8, 4, 2, 1, 0.5, 0.25, 0.125 ug*ml-1. Then the adjusted solutions were inoculated with tested bacteria, and the tested systems were placed in the constant temperature oven to culture for 2-7 days. The concentration at which there was no growing of fungi was taken as the minimum inhibitory concentration (MIC).
# [2] = test system: C. albicans; assay: as above; settings: Candida albicans, read-out: MIC C. albicas
# Procedure: as §1, §2, §3
# [3] = test system: C. glabrata; assay: as above; settings: Nakaseomyces glabratus, RPMI 1640, culture 2-7 days
# Procedure: as §1, §2, §3
# [4] = test system: C. neoformans; assay: as above; settings: Cryptococcus neoformans, RPMI 1640, culture 2-7 days
# Procedure: as §1, §2, §3
# [5] = test system: C. parapsilosis; assay: as above; settings: Lodderomyces parapsilosis, RPMI 1640, culture 2-7 days
# Procedure: as §1, §2, §3
# [6] = test system: C. tropicalis; assay: as above; settings: Candida tropicalis, RPMI 1640, culture 2-7 days
# Procedure: as §1, §2, §3
# [7] = test system: E. floccosum; assay: as above; settings: Epidermophyton floccosum, RPMI 1640, culture 2-7 days
# Procedure: as §1, §2, §3
# [8] = test system: Fusarium oxysporum vasinfectum; assay: as above; settings: RPMI 1640, culture 2-7 days
# Procedure: as §1, §2, §3
# [9] = test system: M. gypseum; assay: as above; settings: Nannizzia gypsea, RPMI 1640, culture 2-7 days
# Procedure: as §1, §2, §3
# [10] = test system: S. schenekn; assay: as above; settings: RPMI 1640, culture 2-7 days
# Procedure: as §1, §2, §3
# [11] = test system: Setosphaeria turcica; assay: as above; settings: Exserohilum turcicum, RPMI 1640, culture 2-7 days
# Procedure: as §1, §2, §3
# [12] = test system: Terchoderma; assay: as above; settings: Trichoderma, RPMI 1640, culture 2-7 days
# Procedure: as §1, §2, §3
# [13] = test system: A375; assay: In vitro anticancer MTT experiment; settings: Homo sapiens, A-375, concentration 5 ug/ml, 48 h or 72 h, read-out: inhibition ratio A375
# Procedure: (§4) In vitro anticancer experiments of 25 compounds as anti-bacterial and anti-cancer compounds in the patent were tested. In the test, 14 kinds of cancer cells were used as tested cancer cells. And the results obtained by MTT method were shown in table 2 (the inhibition ratio was obtained when the concentration was 5 ug/ml). Tested Cancer Cells: SGC7901, HTB-38HT-29, CRL-2233NU-398, CRL-1469PANC-1, B0192, HTB-131MDA-453, CRL-1435PC-3, FTC133, AS24391, HTB-95637. (Cancer cells were from Chinese Military Academy of Medical Sciences). Cells Culture: Culture solution was composed of RPMI 1640 medium, 10% (VAT) Fetal calf serum and 0.01% L-glutamine. Cultured cells were maintained at 37° C. in an incubator with 5% CO2. The cells at logarithmic growth phase were used in the experiment. MTT Experiment: Single cell suspension was obtained by digesting cells with 0.25% trypsin. The cells at logarithmic growth phase were collected and seeded in a 96-well plate at a concentration of 6000-7000 cells per well. After culturing for 12 h at 37° C. in the incubator with 5% CO2, the cells were again incubated with the tested compounds of various concentrations for 48 h or 72 h. Pure cultures and cells without drug were taken as blank reference and negative reference, and 8 Wells of each group were taken. Twenty microliter of MTT (5 mg/mL) was added to each well, and the mixed solutions were incubation for 4 h. The formazan product was dissolved by dimethyl sulfoxide (DMSO, 150 μL), and the optical density (O.D.) was read at 570 nm. The Inhibition Ratio was calculated by the following formula: Inhibition Ratio=(Anegative control−Asample)/(Anegative control−Ablank control)
# [14] = test system: AS24391; assay: In vitro anticancer MTT experiment; settings: concentration 5 ug/ml, 48 h or 72 h, read-out: inhibition ratio AS24391
# Procedure: as §4
# [15] = test system: B01092; assay: In vitro anticancer MTT experiment; settings: concentration 5 ug/ml, 48 h or 72 h, read-out: inhibition ratio B01092
# Procedure: as §4
# [16] = test system: CRL-1435PC-3; assay: In vitro anticancer MTT experiment; settings: concentration 5 ug/ml, 48 h or 72 h, read-out: inhibition ratio CRL-1435PC-3
# Procedure: as §4
# [17] = test system: CRL-1469PANC-1; assay: In vitro anticancer MTT experiment; settings: concentration 5 ug/ml, 48 h or 72 h, read-out: inhibition ratio CRL-1469PANC-1
# Procedure: as §4
# [18] = test system: CRL-2233SNU-398; assay: In vitro anticancer MTT experiment; settings: concentration 5 ug/ml, 48 h or 72 h, read-out: inhibition ratio CRL-2233SNU-398
# Procedure: as §4
# [19] = test system: FTC 133; assay: In vitro anticancer MTT experiment; settings: Homo sapiens, concentration 5 ug/ml, 48 h or 72 h, read-out: inhibition ratio FTC 133
# Procedure: as §4
# [20] = test system: HTB-131MDA-MB-453; assay: In vitro anticancer MTT experiment; settings: concentration 5 ug/ml, 48 h or 72 h, read-out: inhibition ratio HTB-131MDA-MB-453
# Procedure: as §4
# [21] = test system: HTB-38HT-29; assay: In vitro anticancer MTT experiment; settings: concentration 5 ug/ml, 48 h or 72 h, read-out: inhibition ratio HTB-38HT-29
# Procedure: as §4
# [22] = test system: HTB-94; assay: In vitro anticancer MTT experiment; settings: concentration 5 ug/ml, 48 h or 72 h, read-out: inhibition ratio HTB-94
# Procedure: as §4
# [23] = test system: HTB-95637; assay: In vitro anticancer MTT experiment; settings: concentration 5 ug/ml, 48 h or 72 h, read-out: inhibition ratio HTB-95637
# Procedure: as §4
# [24] = test system: L1210; assay: In vitro anticancer MTT experiment; settings: Mus musculus, concentration 5 ug/ml, 48 h or 72 h, read-out: inhibition ratio L1210
# Procedure: as §4
# [25] = test system: L428; assay: In vitro anticancer MTT experiment; settings: Homo sapiens, L-428, concentration 5 ug/ml, 48 h or 72 h, read-out: inhibition ratio L428
# Procedure: as §4
# [26] = test system: SGC7901; assay: In vitro anticancer MTT experiment; settings: Homo sapiens, SGC-7901, concentration 5 ug/ml, 48 h or 72 h, read-out: inhibition ratio SGC7901
# Procedure: as §4
# [27] = test system: gibberella; assay: In vitro antibacterial (antifungal) test, two-fold dilution MIC; settings: RPMI 1640, culture 2-7 days
# Procedure: as §1, §2, §3
SMILES,MIC [2] [µg/mL],MIC [3] [µg/mL],MIC [4] [µg/mL],MIC [5] [µg/mL],MIC [6] [µg/mL],MIC [7] [µg/mL],MIC [8] [µg/mL],MIC [9] [µg/mL],MIC [10] [µg/mL],MIC [11] [µg/mL],MIC [12] [µg/mL],inhibition at 5 µg/mL [13] [%],inhibition at 5 µg/mL [14] [%],inhibition at 5 µg/mL [15] [%],inhibition at 5 µg/mL [16] [%],inhibition at 5 µg/mL [17] [%],inhibition at 5 µg/mL [19] [%],inhibition at 5 µg/mL [20] [%],inhibition at 5 µg/mL [22] [%],inhibition at 5 µg/mL [24] [%],other results
"O=C1/C(=C/Cl)CSc2ccc(Cl)cc21 [Compound 4, (Z)-6-chloro-3-(chloromethylene)thiochroman-4-one]",4,16,4,2,8,2,32,16,4,8,16,50.4,46.2,56.7,54.2,68,46.5,57.6,68,82.3,MIC [1]: 32 µg/mL; inhibition at 5 µg/mL [18]: 75.5%; inhibition at 5 µg/mL [21]: 67.3%; inhibition at 5 µg/mL [23]: 52.8%; inhibition at 5 µg/mL [25]: 66.6%; inhibition at 5 µg/mL [26]: 60.8%
"Cc1ccc2c(c1)C(=O)/C(=C/Br)CS2 [Compound 8, (Z)-3-(bromomethylene)-6-methylthiochroman-4-one]",32,64,8,32,64,64,64,64,32,64,32,37.9,40,39,50.6,47.9,75.6,47.3,56.7,84.6,MIC [1]: 64 µg/mL; inhibition at 5 µg/mL [18]: 46.4%; inhibition at 5 µg/mL [21]: 54.9%; inhibition at 5 µg/mL [23]: 56.4%; inhibition at 5 µg/mL [25]: 44.2%; inhibition at 5 µg/mL [26]: 60.6%
"O=C1/C(=C/Cl)CSc2ncccc21 [Compound 18, (Z)-3-(chloromethylene)-2H-thiopyrano[2,3-b]pyridin-4(3H)-one]",8,16,4,8,16,32,16,32,4,8,16,67.8,63.5,67.7,41,56.4,55,77.1,49,76.8,MIC [1]: 32 µg/mL; inhibition at 5 µg/mL [18]: 46.6%; inhibition at 5 µg/mL [21]: 63.5%; inhibition at 5 µg/mL [23]: 56.4%; inhibition at 5 µg/mL [26]: 47.5%
"O=C1/C(=C/Cl)CSc2sccc21 [Compound 19, (Z)-5-(chloromethylene)-5,6-dihydro-4H-thieno[2,3-b]thiopyran-4-one]",8,32,16,4,16,4,16,16,32,32,4,46.2,53,36.5,41.3,67.9,54.8,47.9,48.5,76.4,MIC [27]: 8 µg/mL; inhibition at 5 µg/mL [25]: 47.5%; inhibition at 5 µg/mL [26]: 56.4%
"O=C1/C(=C\Cl)SCc2ccccc21 [Compound 26, (E)-3-(chloromethylene)isothiochroman-4-one]",2,16,4,32,8,4,4,16,8,2,8,,,,,,,,,,MIC [1]: 8 µg/mL; MIC [27]: 16 µg/mL
"Cc1ccc2c(c1)C(Cl)/C(=C/Cl)CS2 (centres unmarked) [Compound 28, (E)-4-chloro-3-(chloromethylene)-6-methylthiochroman]",32,32,8,32,16,4,64,16,16,,16,52.7,72.3,46.2,65.2,75.3,72.5,56.8,62.2,79.4,inhibition at 5 µg/mL [18]: 56.3%; inhibition at 5 µg/mL [21]: 72.4%; inhibition at 5 µg/mL [23]: 48.2%; inhibition at 5 µg/mL [25]: 66.7%; inhibition at 5 µg/mL [26]: 63.3%
